Measurements from the supplement of paper PMC6045584.
± gives the standard deviation of the averaged measurements.

compound: Cc1ccc(-c2cc(C(F)(F)F)nn2-c2ccc(S(N)(=O)=O)cc2)cc1 [CELECOXIB]; assay: surviving fraction relative to DMSO-only wells; higher = less growth inhibition; details: 10 nM; exposure time: 5 days
In short: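 Inhibitors were tested at 0.5, 1, 5, 10, 50, 100, 500 and 1000 nM, applied continuously for five days beginning 24 hours after log-phase tumour cells were seeded at 250–500 per well in 384-well plates. CellTiter-Glo luminescence served as the viability measure, expressed as surviving fraction against the median of DMSO-only wells. Each line, screened three times, was kept only with replicate Pearson r >0.7 and median Z' >0.3.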

Row | Test System | surviving fraction
1 | ASKA SYNOVIAL | 1.19 ± 0.048

same assay, conditions: 50 nM; exposure time: 5 days

Row | Test System | surviving fraction
2 | JURKAT HAEMATOPOIETIC AND LYMPHOID TISSUE | 0.986 ± 0.034
3 | SJSA1 BONE | 1.71 ± 0.07
4 | YAMATO SYNOVIAL | 1.42 ± 0.11
5 | C33A CERVIX | 0.932 ± 0.11
6 | PCI30 HEADNECK | 1.03 ± 0.12
7 | SCC003 HEADNECK | 1.12 ± 0.11
8 | HUO3N1 BONE | 1.12 ± 0.017
9 | T47D BREAST | 1.14 ± 0.054
10 | NOS1 BONE | 1.18 ± 0.019
11 | HELA CERVIX | 1.09 ± 0.018
12 | NY BONE | 1.11 ± 0.047
13 | CASKI CERVIX | 1.01 ± 0.027
14 | BT549 BREAST | 1.15 ± 0.068
15 | COLO320DM LARGE INTESTINE | 1.14 ± 0.043
16 | MDAMB361 BREAST | 0.857 ± 0.17
17 | HOSMNG BONE | 1.01 ± 0.059
18 | A549 LUNG | 1.08 ± 0.044
19 | CAL51 BREAST | 1.07 ± 0.027
20 | OSHN BONE | 1.132 ± 0.0091
21 | MCF7 BREAST | 0.937 ± 0.042
22 | HT1080 SOFT TISSUE | 0.995 ± 0.02

Row | Test System | surviving fraction
23 | MDAMB157 BREAST | 1 ± 0.16
24 | 143B BONE | 1.08 ± 0.052
25 | SIHA CERVIX | 1.06 ± 0.072
26 | MDAMB134 BREAST | 1.18 ± 0.2
27 | SG32 HEADNECK | 1.22 ± 0.063
28 | NCIH441 LUNG | 1.11 ± 0.068
29 | CCK81 LARGE INTESTINE | 0.774 ± 0.094
30 | SG31 HEADNECK | 1.15 ± 0.17
31 | OS25HAL BONE | 1.06 ± 0.044
32 | HCC1954 BREAST | 1.11 ± 0.033
33 | VP229 BREAST | 1.15 ± 0.052
34 | 22RV1 PROSTATE | 0.956 ± 0.17
35 | MDAMB231 BREAST | 1.01 ± 0.02
36 | RDES SOFT TISSUE | 1.16 ± 0.25
37 | LM7 BONE | 1.04 ± 0.038
38 | HMT3552 BREAST | 1.16 ± 0.019
39 | SNU475 LIVER | 1.07 ± 0.026
40 | HCC38 BREAST | 1.25 ± 0.1
41 | HU09 BONE | 1.04 ± 0.05
42 | ASKA SYNOVIAL | 1.19 ± 0.12

same assay, conditions: 100 nM; exposure time: 5 days

Row | Test System | surviving fraction
43 | JURKAT HAEMATOPOIETIC AND LYMPHOID TISSUE | 1 ± 0.03
44 | SJSA1 BONE | 1.81 ± 0.054
45 | YAMATO SYNOVIAL | 1.47 ± 0.14
46 | C33A CERVIX | 1.04 ± 0.088
47 | PCI30 HEADNECK | 1.01 ± 0.013
48 | SCC003 HEADNECK | 1.09 ± 0.049
49 | HUO3N1 BONE | 1.02 ± 0.039
50 | T47D BREAST | 1.15 ± 0.021
51 | NOS1 BONE | 1.21 ± 0.054
52 | HELA CERVIX | 1.16 ± 0.044
53 | NY BONE | 1.1 ± 0.039
54 | CASKI CERVIX | 1 ± 0.051
55 | BT549 BREAST | 1.28 ± 0.067
56 | COLO320DM LARGE INTESTINE | 1.15 ± 0.025
57 | MDAMB361 BREAST | 0.89 ± 0.21
58 | HOSMNG BONE | 1.08 ± 0.098
59 | A549 LUNG | 1.08 ± 0.045
60 | CAL51 BREAST | 1.11 ± 0.03
61 | OSHN BONE | 1.15 ± 0.029
62 | MCF7 BREAST | 0.942 ± 0.093

Row | Test System | surviving fraction
63 | HT1080 SOFT TISSUE | 1.011 ± 0.008
64 | MDAMB157 BREAST | 0.991 ± 0.04
65 | 143B BONE | 1.14 ± 0.072
66 | SIHA CERVIX | 1.11 ± 0.026
67 | MDAMB134 BREAST | 1.18 ± 0.12
68 | SG32 HEADNECK | 1.1 ± 0.12
69 | NCIH441 LUNG | 1.06 ± 0.17
70 | CCK81 LARGE INTESTINE | 0.732 ± 0.099
71 | SG31 HEADNECK | 1.1 ± 0.063
72 | OS25HAL BONE | 1.1 ± 0.035
73 | HCC1954 BREAST | 0.959 ± 0.038
74 | VP229 BREAST | 1.27 ± 0.03
75 | 22RV1 PROSTATE | 1.01 ± 0.16
76 | MDAMB231 BREAST | 1.04 ± 0.012
77 | RDES SOFT TISSUE | 1.27 ± 0.11
78 | LM7 BONE | 1.04 ± 0.023
79 | HMT3552 BREAST | 1.18 ± 0.062
80 | SNU475 LIVER | 1.02 ± 0.046
81 | HCC38 BREAST | 1.17 ± 0.0085
82 | ASKA SYNOVIAL | 1.21 ± 0.064

same assay, conditions: 500 nM; exposure time: 5 days

Row | Test System | surviving fraction
83 | JURKAT HAEMATOPOIETIC AND LYMPHOID TISSUE | 1.03 ± 0.013
84 | SJSA1 BONE | 1.65 ± 0.039
85 | YAMATO SYNOVIAL | 1.39 ± 0.094
86 | C33A CERVIX | 0.981 ± 0.13
87 | PCI30 HEADNECK | 0.975 ± 0.051
88 | SCC003 HEADNECK | 1.13 ± 0.11
89 | HUO3N1 BONE | 1 ± 0.023
90 | T47D BREAST | 1.11 ± 0.014
91 | NOS1 BONE | 1.12 ± 0.11
92 | HELA CERVIX | 1.14 ± 0.033
93 | NY BONE | 1.01 ± 0.021
94 | CASKI CERVIX | 0.933 ± 0.034
95 | BT549 BREAST | 1.18 ± 0.03
96 | COLO320DM LARGE INTESTINE | 1.15 ± 0.074
97 | MDAMB361 BREAST | 0.909 ± 0.091
98 | HOSMNG BONE | 1.05 ± 0.13
99 | A549 LUNG | 1.11 ± 0.057
100 | CAL51 BREAST | 1.07 ± 0.021
101 | OSHN BONE | 1.15 ± 0.023
102 | MCF7 BREAST | 1 ± 0.011
103 | HT1080 SOFT TISSUE | 1.02 ± 0.012

Row | Test System | surviving fraction
104 | MDAMB157 BREAST | 0.984 ± 0.025
105 | 143B BONE | 1.08 ± 0.05
106 | SIHA CERVIX | 1.07 ± 0.067
107 | MDAMB134 BREAST | 0.984 ± 0.095
108 | SG32 HEADNECK | 1.64 ± 0.21
109 | NCIH441 LUNG | 1.06 ± 0.14
110 | CCK81 LARGE INTESTINE | 0.735 ± 0.089
111 | SG31 HEADNECK | 1.63 ± 0.2
112 | OS25HAL BONE | 1.15 ± 0.08
113 | HCC1954 BREAST | 1.08 ± 0.024
114 | VP229 BREAST | 1.25 ± 0.076
115 | 22RV1 PROSTATE | 1.02 ± 0.12
116 | MDAMB231 BREAST | 1.04 ± 0.03
117 | RDES SOFT TISSUE | 1.17 ± 0.14
118 | LM7 BONE | 0.944 ± 0.044
119 | HMT3552 BREAST | 1.19 ± 0.078
120 | SNU475 LIVER | 1.06 ± 0.03
121 | HCC38 BREAST | 1.09 ± 0.095
122 | HU09 BONE | 0.952 ± 0.18
123 | ASKA SYNOVIAL | 1.15 ± 0.073

same assay, conditions: 1000 nM; exposure time: 5 days

Row | Test System | surviving fraction
124 | JURKAT HAEMATOPOIETIC AND LYMPHOID TISSUE | 0.975 ± 0.035
125 | SJSA1 BONE | 1.85 ± 0.11
126 | YAMATO SYNOVIAL | 1.36 ± 0.21
127 | C33A CERVIX | 1.11 ± 0.035
128 | PCI30 HEADNECK | 0.928 ± 0.038
129 | SCC003 HEADNECK | 1.08 ± 0.067
130 | HUO3N1 BONE | 0.974 ± 0.036
131 | T47D BREAST | 1.13 ± 0.012
132 | NOS1 BONE | 1.16 ± 0.075
133 | HELA CERVIX | 1.13 ± 0.049
134 | NY BONE | 1.01 ± 0.053
135 | CASKI CERVIX | 0.972 ± 0.11
136 | BT549 BREAST | 1.15 ± 0.058
137 | COLO320DM LARGE INTESTINE | 1.13 ± 0.031
138 | MDAMB361 BREAST | 0.968 ± 0.17
139 | HOSMNG BONE | 1.02 ± 0.072
140 | A549 LUNG | 1.05 ± 0.044
141 | CAL51 BREAST | 1.05 ± 0.064
142 | OSHN BONE | 1.11 ± 0.015
143 | MCF7 BREAST | 1.01 ± 0.033
144 | HT1080 SOFT TISSUE | 1 ± 0.021

Row | Test System | surviving fraction
145 | MDAMB157 BREAST | 0.945 ± 0.07
146 | 143B BONE | 1.08 ± 0.033
147 | SIHA CERVIX | 1.05 ± 0.064
148 | MDAMB134 BREAST | 0.978 ± 0.085
149 | SG32 HEADNECK | 1.19 ± 0.062
150 | NCIH441 LUNG | 1.1 ± 0.19
151 | CCK81 LARGE INTESTINE | 0.813 ± 0.077
152 | SG31 HEADNECK | 1.52 ± 0.15
153 | OS25HAL BONE | 1.08 ± 0.051
154 | HCC1954 BREAST | 0.859 ± 0.088
155 | VP229 BREAST | 1.4 ± 0.049
156 | 22RV1 PROSTATE | 1.06 ± 0.035
157 | MDAMB231 BREAST | 1.02 ± 0.033
158 | RDES SOFT TISSUE | 1.15 ± 0.045
159 | LM7 BONE | 1.02 ± 0.068
160 | HMT3552 BREAST | 1.27 ± 0.041
161 | SNU475 LIVER | 1.11 ± 0.026
162 | HCC38 BREAST | 1.15 ± 0.12
163 | HU09 BONE | 0.846 ± 0.02
164 | ASKA SYNOVIAL | 1.12 ± 0.039
